Results from ChEMBL document CHEMBL3392951, “Discovery of indole-derived pyridopyrazine-1,6-dione γ-secretase modulators that target presenilin” (Bioorg Med Chem Lett, 2015).

Assay: Octanol-water partition coefficient, log D of the compound at pH 7.4 by shake flask method
Type: physicochemical

| logD | SMILES |
| --- | --- |
| 2.7 | Cc1cn(-c2ccc3n(c2=O)CCN(Cc2cccc4ccccc24)C3=O)cn1 |
| 4.1 | CCn1cc(CN2CCn3c(ccc(-n4cnc(C)c4)c3=O)C2=O)c2ccc(C(F)(F)F)cc21 |
| 3.3 | Cc1cn(-c2ccc3n(c2=O)CCN(Cc2cccc4ccc(C(F)(F)F)cc24)C3=O)cn1 |
